According to patent US20150176022A1, “HERBICIDE-RESISTANT SUNFLOWER PLANTS, POLYNUCLEOTIDES ENCODING HERBICIDE=RESISTANT ACETO HYDROXY ACID SYNTHASE LARGE SUBUNIT PROTEINS, AND METHODS OF USE” (priority 2013, published 2015):

Key:
Experiment in all cases: Greenhouse whole-plant imazapir dose response (Example 8)
Assay type in all cases: in vivo, Helianthus annuus
[1] = tested on: sunflower IR79 (Restorer Line, A205V); conditions: 6× (480 g ai/ha), 14 DAT
Experimental: (§1) A greenhouse study was conducted to quantify and contrast the imazapir sensitivity of the mutants A122T and A205V in different genetic backgrounds at the whole plant level in sunflower. Seeds of the different sunflower lines that were used in this study were obtained under field conditions.
(§2) Seeds were sown in Petri dishes and, after germination, plantlets were transplanted to pots of 10 cm of diameter in a potting media consisting of equal parts of vermiculite, soil and sand. Plants were grown in a greenhouse under natural light conditions supplemented with 400 W sodium halide lamps to provide a 16 hrs daylength. Day/night temperatures were 25 and 20° C., respectively. At the V2 stage 10 plants of each genotype were randomly assigned to each treatment consisting of […] imazapir doses (0, 40, 80, 160, 240, 320, 400 and 480 g ai/ha), and a zero-time biomass determination. Experiment was arranged as a randomized block design with a full factorial (sunflower line×treatment) arrangement of treatments and 10 replications.
(§3) On the day of herbicide application ten plants of each genotype were cut at the cotyledonal node and dried at 60° C. for 48 hrs zero-time for dried weight determination. […] Height was determined as the distance between the cotyledonal node and the apex of each plant. For root biomass determination, each plant was taken from the pot and the potting media was washed out from the roots. Above ground biomass data from each line were converted to biomass accumulation after application by subtracting the appropriate average zero-time biomass from each sample. Dry biomass data were converted to percentages of the untreated control plants within each line to allow direct comparisons between groups.

[2] = tested on: sunflower TH1 (Hybrid, A205V); conditions: 14 DAT
Experimental: as §1, §2, §3

[3] = tested on: sunflower TH11 (Hybrid, A122T); conditions: 14 DAT
Experimental: as §1, §2, §3

In the case of `CC(C)C1(C)N=C(c2ncccc2C(=O)O)NC1=O` (centres unmarked) [imazapir, imazapyr], the “biomass accumulation (dry biomass, % of untreated)” value [1] is reported as 35.3%, the “plant height (% of untreated)” value [1] is reported as 33.2% and the “root dry weight (% of untreated)” value [1] is reported as 21.9%. For the same compound, the “Phytotoxicity Index” value ([2]; 0.5× (40 g ai/ha)) was 0, the “biomass accumulation (dry biomass, % of untreated)” value ([2]; 0.5× (40 g ai/ha)) was 95.0% and the “plant height (% of untreated)” value ([2]; 0.5× (40 g ai/ha)) was 99.5%. The “root dry weight (% of untreated)” value ([2]; 0.5× (40 g ai/ha)) was 79.4%, the “Phytotoxicity Index” value ([2]; 1× (80 g ai/ha)) was 0 and the “biomass accumulation (dry biomass, % of untreated)” value ([2]; 1× (80 g ai/ha)) was 89.6%. For the same compound, the “plant height (% of untreated)” value ([2]; 1× (80 g ai/ha)) was 99.5%, the “root dry weight (% of untreated)” value ([2]; 1× (80 g ai/ha)) was 70.7% and the “Phytotoxicity Index” value ([2]; 2× (160 g ai/ha)) was 1.8. The “biomass accumulation (dry biomass, % of untreated)” value ([2]; 2× (160 g ai/ha)) was 75.5%, the “plant height (% of untreated)” value ([2]; 2× (160 g ai/ha)) was 78.6% and the “root dry weight (% of untreated)” value ([2]; 2× (160 g ai/ha)) was 69.6%. For the same compound, the “Phytotoxicity Index” value ([2]; 3× (240 g ai/ha)) was 6.4, the “biomass accumulation (dry biomass, % of untreated)” value ([2]; 3× (240 g ai/ha)) was 60.4% and the “plant height (% of untreated)” value ([2]; 3× (240 g ai/ha)) was 48.4%. For the same compound, the “root dry weight (% of untreated)” value ([2]; 3× (240 g ai/ha)) was 42.3%, the “Phytotoxicity Index” value ([2]; 4× (320 g ai/ha)) was 8.0 and the “biomass accumulation (dry biomass, % of untreated)” value ([2]; 4× (320 g ai/ha)) was 46.5%. For the same compound, the “plant height (% of untreated)” value ([2]; 4× (320 g ai/ha)) was 28.9%, the “root dry weight (% of untreated)” value ([2]; 4× (320 g ai/ha)) was 38.6% and the “Phytotoxicity Index” value ([2]; 5× (400 g ai/ha)) was 8.9. For the same compound, the “biomass accumulation (dry biomass, % of untreated)” value ([2]; 5× (400 g ai/ha)) was 38.9%, the “plant height (% of untreated)” value ([2]; 5× (400 g ai/ha)) was 25.3% and the “root dry weight (% of untreated)” value ([2]; 5× (400 g ai/ha)) was 34.7%. For the same compound, the “Phytotoxicity Index” value ([2]; 6× (480 g ai/ha)) was 9.0, the “biomass accumulation (dry biomass, % of untreated)” value ([2]; 6× (480 g ai/ha)) was 33.9% and the “plant height (% of untreated)” value ([2]; 6× (480 g ai/ha)) was 27.1%. For the same compound, the “root dry weight (% of untreated)” value ([2]; 6× (480 g ai/ha)) was 23.1%, the “Phytotoxicity Index” value ([3]; 0.5× (40 g ai/ha)) was 0.4 and the “biomass accumulation (dry biomass, % of untreated)” value ([3]; 0.5× (40 g ai/ha)) was 96.6%. The “plant height (% of untreated)” value ([3]; 0.5× (40 g ai/ha)) was 100.4%, the “root dry weight (% of untreated)” value ([3]; 0.5× (40 g ai/ha)) was 100% and the “Phytotoxicity Index” value ([3]; 1× (80 g ai/ha)) was 0.4. The “biomass accumulation (dry biomass, % of untreated)” value ([3]; 1× (80 g ai/ha)) was 93.9%, the “plant height (% of untreated)” value ([3]; 1× (80 g ai/ha)) was 99.9% and the “root dry weight (% of untreated)” value ([3]; 1× (80 g ai/ha)) was 99.0%. The “Phytotoxicity Index” value ([3]; 2× (160 g ai/ha)) was 0.4, the “biomass accumulation (dry biomass, % of untreated)” value ([3]; 2× (160 g ai/ha)) was 81.6% and the “plant height (% of untreated)” value ([3]; 2× (160 g ai/ha)) was 92.0%. For the same compound, the “root dry weight (% of untreated)” value ([3]; 2× (160 g ai/ha)) was 86.1%, the “Phytotoxicity Index” value ([3]; 3× (240 g ai/ha)) was 0.5 and the “biomass accumulation (dry biomass, % of untreated)” value ([3]; 3× (240 g ai/ha)) was 75.8%. The “plant height (% of untreated)” value ([3]; 3× (240 g ai/ha)) was 90.5%, the “root dry weight (% of untreated)” value ([3]; 3× (240 g ai/ha)) was 81.5% and the “Phytotoxicity Index” value ([3]; 4× (320 g ai/ha)) was 1.0. For the same compound, the “biomass accumulation (dry biomass, % of untreated)” value ([3]; 4× (320 g ai/ha)) was 75.0%, the “plant height (% of untreated)” value ([3]; 4× (320 g ai/ha)) was 90.8% and the “root dry weight (% of untreated)” value ([3]; 4× (320 g ai/ha)) was 72.6%. For the same compound, the “Phytotoxicity Index” value ([3]; 5× (400 g ai/ha)) was 2.0, the “biomass accumulation (dry biomass, % of untreated)” value ([3]; 5× (400 g ai/ha)) was 60.1% and the “plant height (% of untreated)” value ([3]; 5× (400 g ai/ha)) was 84.4%. For the same compound, the “root dry weight (% of untreated)” value ([3]; 5× (400 g ai/ha)) was 68.9%, the “Phytotoxicity Index” value ([3]; 6× (480 g ai/ha)) was 2.5 and the “biomass accumulation (dry biomass, % of untreated)” value ([3]; 6× (480 g ai/ha)) was 59.6%. For the same compound, the “plant height (% of untreated)” value ([3]; 6× (480 g ai/ha)) was 84.4% and the “root dry weight (% of untreated)” value ([3]; 6× (480 g ai/ha)) was 45.3%.
